From PMC11673057, “Unlocking Testosterone Production by Biotransformation: Engineering a Fungal Model of Aspergillus nidulans Strain Deficient in Steroid 11α-Hydroxylase Activity and Expressing 17β-Hydroxysteroid Dehydrogenase Enzyme as Proof of Concept” (Biomolecules, 2024)

Biological target: CYP68L1 (hydAN), steroid 11α-hydroxylase (Aspergillus nidulans, UniProt A0A6J3WXY1)
Assay: whole-cell fermentation of knockout strain expressing enzyme, HPLC
Type: cell-based
Conditions: 32 °C, 72 h; 11alpha-hydroxylation

Chain of CYP68L1 (hydAN), steroid 11α-hydroxylase (A0A6J3WXY1 entry or part of it): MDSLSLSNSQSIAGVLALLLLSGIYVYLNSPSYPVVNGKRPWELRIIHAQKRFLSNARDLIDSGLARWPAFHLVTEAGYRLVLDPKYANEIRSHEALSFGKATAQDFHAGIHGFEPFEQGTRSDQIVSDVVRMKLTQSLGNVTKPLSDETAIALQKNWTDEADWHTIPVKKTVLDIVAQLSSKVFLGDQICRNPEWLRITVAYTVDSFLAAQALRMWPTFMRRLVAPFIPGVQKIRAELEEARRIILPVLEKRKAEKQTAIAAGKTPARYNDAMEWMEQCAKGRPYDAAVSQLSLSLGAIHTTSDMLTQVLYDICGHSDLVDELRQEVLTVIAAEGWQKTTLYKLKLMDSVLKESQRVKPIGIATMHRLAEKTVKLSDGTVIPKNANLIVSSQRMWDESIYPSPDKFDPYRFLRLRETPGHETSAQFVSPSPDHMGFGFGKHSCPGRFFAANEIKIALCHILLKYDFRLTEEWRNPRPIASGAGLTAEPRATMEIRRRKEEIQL

C[C@]12CCC(=O)C=C1CC[C@@H]1[C@@H]2CC[C@]2(C)C(=O)CC[C@@H]12 [AD, androstenedione]
whole-cell fermentation of knockout strain expressing enzyme, HPLC: Hydroxylase activity was restored by expressing the hydAN gene encoding this CYP450 in the KOhydAN strain
